{"source": "paper PMC11272598", "about": "“RG7774 (Vicasinabin), an orally bioavailable cannabinoid receptor 2 (CB2R) agonist, decreases retinal vascular permeability, leukocyte adhesion, and ocular inflammation in animal models” (Frontiers in Pharmacology, 2024)", "key": {"[1]": {"target": "T1, endogenous CB2R in human Jurkat cells (Homo sapiens, UniProt P34972)", "T1 construct": "endogenous CB2R in human Jurkat cells; endogenous in cells; host or cells: Jurkat cells", "T1 sequence (P34972 whole entry)": "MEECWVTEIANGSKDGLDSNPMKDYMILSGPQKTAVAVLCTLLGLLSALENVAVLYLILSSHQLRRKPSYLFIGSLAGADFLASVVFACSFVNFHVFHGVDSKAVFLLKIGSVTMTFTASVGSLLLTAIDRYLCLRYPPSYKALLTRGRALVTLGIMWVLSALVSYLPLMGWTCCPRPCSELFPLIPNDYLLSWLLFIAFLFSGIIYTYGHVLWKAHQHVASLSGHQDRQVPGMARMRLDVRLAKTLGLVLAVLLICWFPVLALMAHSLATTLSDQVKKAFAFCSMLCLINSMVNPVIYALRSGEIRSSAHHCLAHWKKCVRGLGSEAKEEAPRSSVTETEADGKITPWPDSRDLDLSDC", "assay": "Competition binding, [^3H]-RO6753361, Jurkat cell membranes", "procedure": "Competition and saturation binding assays were performed using the radiolabeled CB1R/CB2R agonist [^3H]-CP55940 (PerkinElmer, Waltham, MA, United States) in recombinant cell systems, and the newly developed CB2R-selective agonist [^3H]-RO6753361 ([Chicca et al., 2024]) in cells expressing endogenous CB1R/CB2R. Competition assays were conducted by incubating 5, 40, or 40 µg of membrane protein from CHO cells, Jurkat cells or spleen cells, respectively, with 1.5 nM [^3H]-CP55940 or 1.5 nM [^3H]-RO6753361 in the presence or absence of increasing concentrations of ligand (RG7774 or control) for 2 h at 30°C in a final volume of 0.2 mL of assay buffer (50 mmol/L Tris-HCl, 5 mmol/L MgCl2, 2.5 mmol/L EDTA, and 0.5% fatty acid-free BSA [pH 7.4] and 1% DMSO), with gentle shaking. Saturation binding assays were conducted by incubating 1–3 μg, 40 μg, or 30–40 μg of membrane protein from CHO cells, Jurkat cells, or spleen tissue, respectively, with 12 concentrations in the range of 80–0.039 nM [^3H]-CP55940 or [^3H]-RO6753361 for 2 h at 30°C in a final volume of 0.2 mL/well of assay buffer without DMSO. […] IC50 values and Hill slopes were determined with a 4-parameter logistic model using ActivityBase (ID Business Solution, Guilford, United Kingdom) and pKi values were determined using the Cheng-Prusoff equation ([Cheng and Prusoff, 1973])."}, "[2]": {"target": "T2, Human 15-LOX (Homo sapiens, UniProt O15296)", "T2 construct": "purchased Cayman Chemical Company #10011263", "T2 sequence (O15296 whole entry)": "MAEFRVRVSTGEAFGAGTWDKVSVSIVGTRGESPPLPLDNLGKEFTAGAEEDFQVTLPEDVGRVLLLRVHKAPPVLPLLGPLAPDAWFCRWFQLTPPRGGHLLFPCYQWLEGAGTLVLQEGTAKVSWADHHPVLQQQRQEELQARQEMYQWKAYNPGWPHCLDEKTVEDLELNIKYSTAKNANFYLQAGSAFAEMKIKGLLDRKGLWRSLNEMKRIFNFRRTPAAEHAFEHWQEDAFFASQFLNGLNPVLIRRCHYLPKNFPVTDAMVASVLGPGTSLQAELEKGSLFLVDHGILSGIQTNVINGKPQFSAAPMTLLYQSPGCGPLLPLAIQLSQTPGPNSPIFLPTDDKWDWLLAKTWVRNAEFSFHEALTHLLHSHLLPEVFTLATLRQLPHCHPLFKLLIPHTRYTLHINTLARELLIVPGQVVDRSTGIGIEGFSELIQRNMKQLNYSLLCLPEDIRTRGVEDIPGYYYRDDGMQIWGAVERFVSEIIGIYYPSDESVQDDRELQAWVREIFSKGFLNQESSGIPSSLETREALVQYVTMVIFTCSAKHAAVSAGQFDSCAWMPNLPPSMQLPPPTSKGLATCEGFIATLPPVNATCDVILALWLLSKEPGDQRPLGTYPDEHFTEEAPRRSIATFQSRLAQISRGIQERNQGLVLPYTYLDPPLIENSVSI", "assay": "Human 15-LOX assay", "assay_type": "biochemical", "conditions": "RG7774 10 µM; read-out: Mean ± SEM % inhibition of control, Human 15-LOX", "protocol": "The inhibitory effects of different concentrations of RG7774 (0.1-500 µM) on the activities of human recombinant 5-LOX (Cayman Chemical Company #60402), 15-LOX (Cayman Chemical Company #10011263), and human platelet-derived 12-LOX were determined using the Biovision Lipoxygenase Activity Assay Kit (#BVN-K978-100). This kit converts the LOX substrate to an intermediate that reacted with the probe, generating a fluorescent product. The effect of RG7774 (preincubated for 15 min) at 10 µM on LOXs (5-LOX: 0.5 or 1.2 µg; 12-LOX: 20 µg; 15-LOX: 0.23 or 0.3 µg) was ascertained by adding the compounds directly to the incubation medium and the fluorescent signal, recorded at excitation/emission 500/536 nm at 30 sec intervals for 30-40 min, was directly proportional to LOX activity. […] The percentage of human 5-, 12-, and 15-LOX activity (control) was estimated from the amount of oxidized probe in the reaction using a standard curve."}, "[3]": {"system": "Human DAGL", "assay": "Human DAGL assay (HaCaT cells)", "assay_type": "biochemical", "conditions": "RG7774 10 µM", "procedure": "Mouse brain or human HaCaT cells (CLS Cell Lines Service, GmbH, Eppelheim, Germany) were homogenized in 50 mM Tris-HCl (pH 7.4) using a glass potter, and homogenates were centrifuged at 4°C sequentially at 800 g (10 min) and 10,000 g (30 min). The final pellet (80–200 µg) was resuspended in 50 mM Tris-HCl (pH 7.4) containing 10 mM CaCl2 and incubated at 37°C for 30 min with sn-1[^14C]-stearoyl-2-arachidonoyl-glycerol (100 µM) (ARC, MO, USA). Reactions were stopped by adding chloroform/methanol (2:1, v/v), and the organic phase was dried and fractionated by thin-layer chromatography on silica gel, as previously reported. Levels of 1[^14C]-stearoyl acid radioactivity were determined by cutting the appropriate band from the gel and analyzing using a β-scintillation counter. Mouse cells were preincubated for 15 min with RG7774 (10 µM) and added to the incubation medium. Human cells were preincubated for 15 min with 8 different concentrations of RG7774 (0.1-500 µM) and added to the incubation medium. Control experiments were carried out in the presence of the selective DAGL inhibitor, D053 (10 µM)."}, "[4]": {"assay": "Parallel artificial membrane permeability assay (PAMPA)", "assay_type": "physicochemical", "procedure": "A 96-well microtiter plate was filled with aqueous buffer (typically 0.05 M Tris, pH 7.4, or 0.05 M phosphate, pH 6.5) and covered with a filter plate in a sandwich construction. The hydrophobic filter material (Durapore/Millipore; pore size 0.22–0.45 μm) covering the first 48 wells (sample) was impregnated with 1%–20% lecithin dissolved in dodecane, hexadecane, and 1,9-decadiene. The filter cover for the remaining 48 wells (reference) was wetted with 4–5 μL of a 50% (v/v) methanol/buffer solution. The transfer of RG7774 and reference substances from the donor compartment, through the lipid-infused artificial membrane, into the acceptor compartment was initiated by transferring 100–200 μL of a 250 or 500 μM stock solution to filter plates covering the sample and reference wells, respectively. The maximum DMSO content of the stock solutions was 5%. The permeation coefficient (Peff) was determined as previously described by Kansy et al. 1998 [3]."}, "[5]": {"assay": "Plasma PK profile in mice", "assay_type": "in vivo, C57BL/6J mice", "procedure": "The plasma PK profile of RG7774 was assessed in adult male C57BL/6J mice and female Wistar rats (Charles River, Cologne, Germany) housed in a controlled environment (temperature, humidity, and 12 h light/dark cycle) with unrestricted access to food and water. The ocular PK profile of RG7774 was assessed in adult female […] rats (Charles River, Mattawan, MI, United States) housed in a controlled environment (21°C–22°C temperature, 40%–60%, humidity, and 12 h light/dark cycle) with unrestricted access to food and water and conducted according to local regulations by EyeCRO (Ann Arbor, MI, United States).\nIn the first study (animal permission #1857), mice received RG7774 as an intravenous (IV) bolus at 1 mg/kg (n = 6) or as an oral (PO) dose at 3 mg/kg (n = 5). In the second study (animal permission #2373), rats received RG7774 as an IV bolus at 10 mg/kg (n = 4) or via gavage at 30 mg/kg (n = 3). Blood samples were collected 0.1, 1, 3, 10, and 24 h post-dose under deep anesthesia with 3%–5% isoflurane in 100% O2. Samples were collected sublingually from mice, from the tail vein in rats or via heart puncture (terminal) into anticoagulant-coated polypropylene tubes and placed on ice. Plasma was prepared within 30 min of collection by centrifugation at 3,000 g for 5 min at 4°C and was immediately frozen. RG7774 concentrations in plasma were determined using LC-MS/MS. PK parameters were estimated by non-compartmental analysis of plasma data using Phoenix WinNonlin software (Certara, Princeton, NJ, United States)."}, "[6]": {"assay": "Cerebrospinal fluid versus plasma concentration (data on file)", "assay_type": "in vivo", "conditions": "cynomolgus monkeys"}, "[7]": {"conditions": "male, C57BL/6J, mouse, plasma, IV 1 mg/kg"}, "[8]": {"conditions": "male, C57BL/6J, mouse, plasma, PO 3 mg/kg"}}}
{"smiles": "Cn1nnnc1Cn1nnc2c(N3CC[C@H](O)C3)nc(C(C)(C)C)nc21", "note": "[RG7774, (S)-1-(5-tert-butyl-3-[(1-methyl-1H-tetrazol-5-yl)methyl]-3H-[1,2,3]triazolo[4,5-d]pyrimidin-7-yl)pyrrolidin-3-ol]", "values": [{"measurement": "Ki", "setting": "[1]", "value": "31.9 ± 13.4", "unit": "nM"}, {"measurement": "inhibition at 10 µM", "setting": "[2]", "value": -8.7, "unit": "%"}, {"measurement": "Mean ± SEM % inhibition of control, Human DAGL", "setting": "[3]", "value": "4.2 ± 52.2", "unit": "%"}, {"measurement": "PAMPA P eff", "setting": "[4]", "value": "9.7 10^−6 cm s^−1"}, {"measurement": "PAMPA acceptor compartment", "setting": "[4]", "value": 23, "unit": "%"}, {"measurement": "PAMPA donor compartment", "setting": "[4]", "value": 59, "unit": "%"}, {"measurement": "PAMPA membrane", "setting": "[4]", "value": 18, "unit": "%"}, {"measurement": "AUCinf/dose", "setting": "[5]; IV 1 mg/kg", "value": "1,230 ng h^–1 ml^–1 (mg kg^−1) ^−1"}, {"measurement": "AUCinf/dose", "setting": "[5]; PO 3 mg/kg", "value": "490 ng h^–1 ml^–1 (mg kg^−1) ^−1"}, {"measurement": "Cmax/dose", "setting": "[5]; PO 3 mg/kg", "value": "487 ng ml^–1 (mg kg^–1) ^−1"}, {"measurement": "clearance", "setting": "[5]; [7]", "value": 13.2, "unit": "mL/min/kg"}, {"measurement": "half-life", "setting": "[5]; [7]", "value": 9.04, "unit": "h"}, {"measurement": "Vd", "setting": "[5]; male, C57BL/6J, mouse, plasma, IV 1 mg/kg, read-out: Vss", "value": 3.7, "unit": "L/kg"}, {"measurement": "Tmax", "setting": "[5]; [8]", "value": 0.25, "unit": "h"}, {"measurement": "bioavailability", "setting": "[5]; [8]", "value": 42.2, "unit": "%"}, {"measurement": "half-life", "setting": "[5]; [8]", "value": 2.1, "unit": "h"}, {"measurement": "concentrations lower in cerebrospinal fluid than in plasma", "setting": "[6]", "value": "approximately 10 fold"}]}
